biological target: Histone deacetylase 1 (Homo sapiens, UniProt Q13547); assay: HDAC1 & HDAC3 Inhibition Assay
Procedure: IC50 determination for HDAC1 and HDAC3-Prior to adding reagents, 50 nL/well of compound were added to Proxiplates using an Echo dispenser instrument (Beckman Coulter, CA, US). After addition of compound, 2.5 μL/well of 2× enzyme solution was added and the enzyme was pre-incubated with compound for 3 hours at room temp. (˜22° C.). After the pre-incubation period, the enzyme reaction was initiated by adding 2.5 μL/well of 2× Fluor de Lys substrate solution. The assay reaction was stopped after one hour by adding 5 μl/well of a 0.66× Developer solution containing TSA (3.2 μM). The final product of the enzyme reaction was read using a Spectramax plate reader instrument (Molecular Devices, CA, US) using a fluorescent readout (Ex 360 nm/Em 460 nm). The final enzyme concentrations in the assay buffer for HDAC1 and 3 were 6 and 1.2 nM, respectively. The final Fluor de Lys substrate concentration in the assay buffer was 16 μM for all HDAC enzymes. IC50 values were determined using the following equation:EfreeEo=100(1-11+(1IC50)n)(1)Where Efree and Eo are the free and total amount of HDAC enzyme in the reaction mixture, n is the hill coefficient, I is the free inhibitor concentration, and IC50 is the measure of the potency equivalent to the inhibitor concentration that leads to a 50% occupancy of the total enzyme. Each data was generated in duplicate.

Histone deacetylase 1, sequence (Q13547 whole entry): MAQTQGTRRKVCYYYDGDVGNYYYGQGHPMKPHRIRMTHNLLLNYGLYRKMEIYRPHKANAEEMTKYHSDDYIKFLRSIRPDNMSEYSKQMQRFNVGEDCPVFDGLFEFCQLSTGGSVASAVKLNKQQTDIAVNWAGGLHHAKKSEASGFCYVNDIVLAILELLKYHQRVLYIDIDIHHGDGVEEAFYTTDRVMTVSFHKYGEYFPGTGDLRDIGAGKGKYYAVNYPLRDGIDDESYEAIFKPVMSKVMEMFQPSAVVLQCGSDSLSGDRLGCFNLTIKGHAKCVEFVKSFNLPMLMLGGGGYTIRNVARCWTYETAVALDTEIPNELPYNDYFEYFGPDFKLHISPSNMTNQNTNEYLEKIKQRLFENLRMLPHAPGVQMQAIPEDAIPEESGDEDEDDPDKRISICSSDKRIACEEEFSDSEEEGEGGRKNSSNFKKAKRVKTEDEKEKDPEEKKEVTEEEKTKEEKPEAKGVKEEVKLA

IC50, < 100 nM:
Nc1ccc(-c2ccc(F)cc2)cc1NC(=O)c1cc2cc(S3(=O)=NCCC3)ccc2s1 (stereo unspecified) [US20250136570, Compound 204]
Nc1ccc(-c2ccc(F)cc2)cc1NC(=O)c1ccc(S2(=O)=NCCCC2)cc1 (stereo unspecified) [US20250136570, Compound 243]
N=S(=O)(c1ccc(C(=O)Nc2cc(-c3ccc(F)cc3)ccc2N)cc1)c1ccc(Cl)cn1 (stereo unspecified) [US20250136570, Compound 213]
Nc1ccc(-c2ccc(F)s2)cc1NC(=O)c1ccc(S2(=O)=NCCC2)cc1 (stereo unspecified) [US20250136570, Compound 160]
Nc1ccc(-c2cccs2)cc1NC(=O)c1ccc(S2(=O)=NCCC2)cc1 (stereo unspecified) [US20250136570, Compound 126]
Nc1ccc(-c2ccc(F)cc2)cc1NC(=O)c1ccc(S2(=O)=NCCC2)nc1 (stereo unspecified) [US20250136570, Compound 178]

— BindingDB's records for patent US20250136570 (Tango Therapeutics, 2025)
